Data from patent US10398663B2, “Mitochondrial delivery of 3-bromopyruvate” (priority 2014, dated 2019).

What was measured:
Type in all cases: cell-based, Human
[1] = test system: PC3 cells; test: CellTiter-Glo luminescent ATP quantification; details: 10 μM with respect to 3-BP, 6 h
Description: PC3 cells were seeded at a density of 1×10^6 cells/mL in a 12 well plate and allowed to grow for 12 h at 37° C. under 5% CO2. Cells were treated with T-AuNP (1 mg/mL), NT-AuNP (1 mg/mL), T-3-BP-AuNP (14.1 μg/mL with respect to NP, 10 μM with respect to 3-BP), NT-3-BP-AuNP (13.7 μg/mL with respect to NP, 10 μM with respect to 3-BP), free 3-BP (10 μM) for 6 h at 37° C. in 5% CO2 atmosphere. Control wells containing medium without cells were used to obtain background luminescence value. Plates were then equilibrated at room temperature for ˜30 min. A volume of CellTiter-Glo reagent equal to the volume of cell culture medium present in each well was added, this mixtures were mixed for 2 min in a shaker to induce cell lysis. The plates were incubated at room temperature for additional 10 min to stabilize luminescent signal. Luminescence was recorded using a plate reader. ATP quantification was carried out from a standard curve using ATP disodium salt hydrate.

[2] = test system: PC3 cells; test: Bioenergetic assay (Seahorse XF24, ECAR and OCR); details: 10 μM with respect to 3-BP, 6 h
Description: Prior to the assay, XF sensor cartridges were hydrated. To each well of an XF utility plate, 1 mL of Seahorse Bioscience calibrant was added and the XF sensor cartridges were placed on top of the utility plate, and kept at 37° C. incubator without CO2 for a minimum of 12 h. PC3 cells were cultured in XF24-well cell culture microplates (Seahorse Bioscience) at a density of 5×10^4 cells/well (0.32 cm2) in 200 μL growth medium and then incubated for 24 h at 37° C. in 5% CO2 atmosphere. The three key parameters of glycolytic function: glycolysis, glycolytic capacity, and glycolytic reserve were assessed using a Seahorse XF glycolysis stress kit. After the cells were attached, an additional 100 μL growth medium was added and the cells were incubated for 24 h at 37° C. in 5% CO2 atmosphere. […] The OCR and the ECAR were measured simultaneously for 16 min to establish a baseline rate. Glycolysis, glycolytic capacity, and glycolytic reserve were calculated by subtracting the average rates before and after the addition of glucose (10 mM), ATP synthase inhibitor oligomycin (1.0 μM), and 2-deoxy-D-glucose (2-DG) (100 mM). These three compounds were injected consecutively with specific time gap and ECAR values were measured after each injection. […]

[3] = test system: PC3 cells; test: Lactate determination; details: 10 μM with respect to 3-BP, 6 h
Description: PC3 cells were seeded at a density of 1×10^6 cells/mL and allowed to grow for 12 h at 37° C. under 5% CO2. Cells were treated with T-AuNP (1 mg/mL), NT-AuNP (1 mg/mL), T-3-BP-AuNP (14.1 μg/mL with respect to NP, 10 μM with respect to 3-BP), NT-3-BP-AuNP (13.7 μg/mL with respect to NP, 10 μM with respect to 3-BP), free 3-BP (10 μM) for 6 h at 37° C. After 6 h, the media was removed and the cells were homogenized. The lysate and the media supernatant were added to the enzyme and substrate working reagent mixture and incubated for 30 min. Lactate concentration was measured using Bio-Tek Synergy HT microplate reader at 450 nm and comparing to a standard curve.

[4] = test system: PC3 cells; test: MTT assay, PC3 cells; details: with respect to 3-BP, 72 h
Description: (§1) Human prostate cancer PC3, DU145 cells and RAW 264.7 macrophages were procured from the American type culture collection (ATCC). DU145 cells were grown at 37° C. in 5% CO2 in Eagle's minimum essential medium (EMEM) supplemented with 10% fetal bovine serum (FBS) and 1% penicillin/streptomycin. PC3 cells were grown in Roswell Park Memorial Institute (RPMI) 1640 medium supplemented with 10% FBS and 1% penicillin/streptomycin. RAW 264.7 macrophages were cultured in RPMI media supplemented with 10% FBS and 1% penicillin/streptomycin. Cells were passed every 3 to 4 days and restarted from frozen stocks upon reaching pass number 20.
(§2) Cytotoxicity profiles of T-AuNPs, NT-AuNPs, T-3-BPAuNPs, NT-3-BP-AuNPs, and 3-BP were studied using the MTT assay against prostate cancer PC3 and DU145 cell lines. Cells (2000 cells/well) were seeded on a 96-well plate in 100 μL of desired medium and incubated for 24 h. The cells were then treated with different constructs at varying concentrations and incubated for 12 h at 37° C. and the media was changed. […] The medium was removed, the cells were lysed with 100 μL of DMSO, and the absorbance of the purple formazan was recorded at 550 nm using a Bio-Tek Synergy HT microplate reader and background absorbance was measured at 800 nm. […] Cytotoxicity was expressed as mean percentage […] relative to the unexposed control±standard deviation (SD). […]

[5] = test system: PC3 cells; test: Apoptosis detection by flow cytometry (Annexin V-PI); details: 6 h, dark
Description: PC3 cells were plated at a density of 1×10^6 cells/mL and allowed to grow for 14 h. Media was changed and cells were treated with T-AuNP (1 mg/mL), NT-AuNP (1 mg/mL), T-3-BP-AuNP (14.1 μg/mL with respect to NP, 10 μM with respect to 3-BP), NT-3-BP-AuNP (13.7 μg/mL with respect to NP, 10 μM with respect to 3-BP), free 3-BP (10 μM or 1 mM) for 6 h at 37° C. As positive controls, etoposide (100 μM, incubation time: 12 h) for apoptosis and H2O2 (1 mM, incubation time: 45 min) for necrosis were used. For apoptosis detection after laser treatment, cells were treated with T-AuNP (1 mg/mL), NT-AuNP (1 mg/mL), T-3-BP-AuNP (14.1 μg/mL with respect to NP, 10 μM with respect to 3-BP), NT-3-BP-AuNP (13.7 μg/mL with respect to NP, 10 μM with respect to 3-BP), free 3-BP (10 μM) for 4 h at 37° C., irradiated with laser of 660 nm for 1 min, and further incubated for 12 h. […] Cells were counted and resuspended in 1× annexinbinding buffer at a density of ˜1×10^6 cells/mL preparing a sufficient volume to have 100 μL per assay. To 100 μL of cell suspension, 5 μL Alexa Fluor® 488 annexin V and 1 μL 100 μg/mL PI working solution were added, incubated for 15 min at room temperature, followed by addition of 400 μL 1× annexin-binding buffer, gently mixing in ice, and the samples were analyzed on the flow cytometer immediately.

[6] = test system: DU145 cells; test: MTT assay, DU145 cells; details: with respect to 3-BP, 72 h
Description: as §1, §2

O=C(O)C(=O)CBr [3-BP, 3-bromopyruvate]
level of ATP [1]: decrease
glycolysis inhibition (ECAR response to glucose) [2]: did not show any glycolysis inhibitory effect
extracellular lactate level [3]: declined
intracellular lactate level [3]: declined
IC50 [4]: 271 ± 9 µM
apoptotic activity ([5]; 10 μM): unable to show any apoptotic activity
apoptotic activity ([5]; 1 mM): significant apoptosis
IC50 [6]: 541 ± 37 µM
